From patent publication US11053212B2, “Benzimidazole derivatives as bromodomain inhibitors” (GLAXOSMITHKLINE INTELLECTUAL PROPERTY DEVELOPMENT LIMITED, priority 2015, dated 2021) come the findings set out here.

The target in one assay is T1, BRD4 BD2 (Homo sapiens, UniProt O60885, Y97A).
T1 construct: BRD4 (1-477) (Y97A) and (Y390A); made in house; host or cells: E. coli (pET15b vector)
Briefly: TR-FRET binding assay, BRD4 BD2 (mutant protein). Particulars: 10 nM mutated bromodomain protein, Alexa Fluor647 ligand at Kd, read-out: mean pIC50 in the BRD4 BD2 assay (converted). The method, then:
(§1) Biological Data Time Resolved Fluorescence Resonance Energy Transfer (TR-FRET) Assay
(§2) Binding was assessed using a time resolved fluorescent resonance energy transfer binding assay. This utilises a 6 His purification tag at the N-terminal of the proteins as an epitope for an anti-6 His antibody labeled with Europium chelate (PerkinElmer AD0111) allowing binding of the Europium to the proteins which acts as the donor fluorophore.
(§3) In the absence of a competing compound, excitation of the Europium causes the donor to emit at λ618 nm which excites the Alexa labelled bromodomain binding compound leading to an increased energy transfer that is measurable at λ647 nM. In the presence of a sufficient concentration of a compound that can bind these proteins, the interaction is disrupted leading to a quantifiable drop in fluorescent resonance energy transfer.
The binding of compounds of the invention to Bromodomains BRD2, BRD3, BRD4 and BRDT was assessed using mutated proteins to detect differential binding to either Binding Domain 1 (BD1) or Binding Domain 2 (BD2) on the bromodomain. […] Therefore in the final assay conditions, binding of the fluoroligand to the mutated domain cannot be detected and subsequently the assay is suitable to determine the binding of compounds to the single non-mutated bromodomain.
Recombinant Human Bromodomains [(BRD2 (1-473) (Y113A) and (Y386A), BRD3 (1-435) (Y73A) and (Y348A) BRD4 (1-477) (Y97A) and (Y390A) and BRDT (1-397) (Y66A) and (Y309A)] were expressed in E coli cells (in pET15b vector for BRD2/3/4 and in pET28a vector for BRDT) with a 6-His tag at the N-terminal. The His-tagged Bromodomain pellet was resuspended in 50 mM HEPES (pH7.5), 300 mM NaCl, 10 mM imidazole & 1 μl/ml protease inhibitor cocktail and extracted from the E coli cells using sonication and purified using a nickel sepharose high performance column, the proteins were washed and then eluted with a linear gradient of 0-500 mM imidazole with buffer 50 mM HEPES (pH7.5), 150 mM NaCl, 500 mM imidazole, over 20 column volumes. Final purification was completed by Superdex 200 prep grade size exclusion column. Purified protein was stored at −80° C. in 20 mM HEPES pH 7.5 and 100 mM NaCl.
All assay components were dissolved in buffer composition of 50 mM HEPES pH7.4, 50 mM NaCl, 5% Glycerol, 1 mM DTT and 1 mM CHAPS. The final concentration of bromodomain proteins were 10 nM and the Alexa Fluor647 ligand was at Kd. These components were premixed and 5 μl of this reaction mixture was added to all wells containing 50 nl of various concentrations of test compound or DMSO vehicle (0.5% DMSO final) in Greiner 384 well black low volume microtitre plates and incubated in dark for 30 minutes at rt. […] of detection mixture containing 1.5 nM final concentration anti-6His Europium chelate was added to all wells and a further dark incubation of at least 30 minutes was performed. Plates were then read on the Envision plate reader, (⋅ex=317 nm, donor ⋅em=615 nm; acceptor ⋅em=665 nm; Dichroic LANCE dual). Time resolved fluorescent intensity measurements were made at both emission wavelengths and the ratio of acceptor/donor was calculated and used for data analysis. All data was normalized to the mean of 16 high (inhibitor control—Example 11 of WO 2011/054846A1) and 16 low (DMSO) control wells on each plate. A four parameter curve fit of the following form was then applied: y=a+((b−a)/(1+(10^x/10^c)^d) Where ‘a’ is the minimum, […], ‘c’ is the pIC50 and […].
On the technique in general: Time-resolved FRET reads energy transfer from a long-lived donor to a nearby acceptor.

Another assay concerns the target T2, BRD4 BD1 (Homo sapiens, UniProt O60885, Y390A).
T2 construct: BRD4 (1-477) (Y97A) and (Y390A); made in house; host or cells: E. coli (pET15b vector)
Briefly: TR-FRET binding assay, BRD4 BD1 (mutant protein). Particulars: 10 nM mutated bromodomain protein, Alexa Fluor647 ligand at Kd, read-out: mean pIC50 in the BRD4 BD1 assay (converted). Here is the method:
as §1, §2, §3
The binding of compounds of the invention to Bromodomains BRD2, BRD3, BRD4 and BRDT was assessed using mutated proteins to detect differential binding to either Binding Domain 1 (BD1) or Binding Domain 2 (BD2) on the bromodomain. […] Therefore in the final assay conditions, binding of the fluoroligand to the mutated domain cannot be detected and subsequently the assay is suitable to determine the binding of compounds to the single non-mutated bromodomain. […]
All assay components were dissolved in buffer composition of 50 mM HEPES pH7.4, 50 mM NaCl, 5% Glycerol, 1 mM DTT and 1 mM CHAPS. […] Plates were then read on the Envision plate reader, (⋅ex=317 nm, donor ⋅em=615 nm; acceptor ⋅em=665 nm; Dichroic LANCE dual). Time resolved fluorescent intensity measurements were made at both emission wavelengths and the ratio of acceptor/donor was calculated and used for data analysis. […]

Assay [1] concerns LPS induced MCP-1 production. Briefly: LPS induced MCP-1 production from human whole blood. It is filed as cell-based. Particulars: LPS 200 ng/mL, 18-24 hours; for IC50: read-out: mean pIC50, LPS induced MCP-1 production (converted). The text has this: Measurement of LPS Induced MCP-1 Production from Human Whole Blood
Activation of monocytic cells by agonists of toll-like receptors such as bacterial lipopolysaccharide (LPS) results in production of key inflammatory mediators including MCP-1. Such pathways are widely considered to be central to the pathophysiology of a range of auto-immune and inflammatory disorders. Blood is collected in a tube containing Sodium heparin (Leo Pharmaceuticals) (10 units of heparin/mL of blood). 96-well compound plates containing 1 μL test sample in 100% DMSO were prepared (two replicates on account of donor variability). 130 μL of whole blood was dispensed into each well of the 96-well compound plates and incubated for 30 min at 37° C., 5% CO2. 10 μL of lipopolysaccharide (from Salmonella typhosa; L6386) made up in PBS (200 ng/mL final assay concentration) was added to each well of the compound plates. The plates were then placed in the humidified primary cell incubator for 18-24 hours at 37° C., 5% CO2. 140 μL of PBS was added to all wells of the compound plates containing blood. The plates were then sealed and centrifuged for 10 mins at 2500 rpm. 25 μL of cell supernatant was placed in a 96-well MSD plate pre-coated with human MCP-1 capture antibody. The plates were sealed and placed on a shaker at 600 rpm for 1 hour (r.t). 25 μL of Anti-human MCP-1 antibody labelled with MSD SULFO-TAG™ reagent is added to each well of the MSD plate (stock 50× was diluted 1:50 with Diluent 100, final assay concentration is 1 μg/mL). The plates were then re-sealed and shaken for another hour before washing with PBS. 150 μL of 2×MSD Read Buffer T (stock 4×MSD Read Buffer T was diluted 50:50 with de-ionised water) was then added to each well and the plates read on the MSD Sector Imager 6000. Concentration response curves for each compound were generated from the data and an pIC50 value was calculated.

Structures can show the parent of a compound that is named as a salt. Where two headings read alike, the source gives them in different places.

In the case of `COCC(COC)n1c(-c2cc(C)c(=O)n(C)c2)nc2cc(CN[C@H](C(=O)O)[C@@H](C)O)ccc21` [Example 66, (2S,3R)-2-(((1-(1,3-dimethoxypropan-2-yl)-2-(1,5-dimethyl-6-oxo-1,6-dihydropyridin-3-yl)-1H-benzo[d]imidazol-5-yl)methyl)amino)-3-hydroxybutanoic acid hydrochloride], the figures for the IC50 (at BRD4 BD2; at BRD4 BD1; in assay [1]) were 1260 nM, 200 nM and 1000 nM, respectively.
On the same counts, the results for `Cc1cc(-c2nc3cc(CN[C@H](C(=O)O)[C@@H](C)O)ccc3n2CC2CCOCC2)cn(C)c1=O` [Example 68, (2S,3R)-2-(((2-(1,5-dimethyl-6-oxo-1,6-dihydropyridin-3-yl)-1-((tetrahydro-2H-pyran-4-yl)methyl)-1H-benzo[d]imidazol-5-yl)methyl)amino)-3-hydroxybutanoic acid hydrochloride] are 631 nM, 251 nM and 3980 nM.
Consider `Cc1cc(-c2nc3cc(CN[C@H](C(=O)OC(C)C)[C@@H](C)O)ccc3n2CC2CCOCC2)cn(C)c1=O` [Example 303, (2S,3R)-isopropyl 2-(((2-(1,5-dimethyl-6-oxo-1,6-dihydropyridin-3-yl)-1-((tetrahydro-2H-pyran-4-yl)methyl)-1H-benzo[d]imidazol-5-yl)methyl)amino)-3-hydroxybutanoate], for which the IC50 in assay [1] (Homo sapiens) is 25.1 nM.
For `COCC(COC)n1c(-c2cc(C)c(=O)n(C)c2)nc2cc(CN[C@H](C(=O)OC(C)C)[C@@H](C)O)ccc21` [Example 305, (2S,3R)-Isopropyl 2-(((1-(1,3-dimethoxypropan-2-yl)-2-(1,5-dimethyl-6-oxo-1,6-dihydropyridin-3-yl)-1H-benzo[d]imidazole-5-yl)methyl)amino)-3-hydroxybutanoate], the IC50 at BRD4 BD2 is 398 nM; on BRD4 BD1, 50.1 nM; in assay [1], 10 nM.
As for `Cc1cc(-c2nc3cc(CN[C@H](C(=O)OC(C)C)[C@@H](C)O)ccc3n2CC2CCOCC2)cn(C)c1=O` [edisylate salt of Example 303, 1,2-ethanedisulphonic acid salt of (2S,3R)-isopropyl 2-(((2-(1,5-dimethyl-6-oxo-1,6-dihydropyridin-3-yl)-1-((tetrahydro-2H-pyran-4-yl)methyl)-1H-benzo[d]imidazol-5-yl)methyl)amino)-3-hydroxybutanoate], the “mean pIC50, LPS induced MCP-1 production” value in assay [1] worked out at 7.5.
